Experimental data published in patent publication US20250064834A1, “COMPOSITIONS AND METHODS FOR TREATMENT AND PREVENTION OF DISEASES UTILIZING TIRILAZAD SALTS” (priority 2022, published 2025).

System: mini-explants from the dermoepidermal junction of the hoof
Assay: In vitro study of hoof laminar mini-explants pre-incubated with tirilazad, then Bothrops alternatus venom, as a model for laminitis; histopathology (H-E, PAS)
Type: cell-based
Experimental: An in vitro study was conducted to analyze the protective effects of tirilazad mesylate on cellular degeneration as a result of Bothrops alternatus snake venom as a model for laminitis. Explant tissue samples were obtained from the dermoepidermal junction of the hoof of the right forelimb under nervous system block without the need for euthanasia.
Under sterile conditions, laminar cuts (mini-explants) were made of each explant and the tissue washed with physiological solution. The mini-explants were pre-incubated for 5 hours with tirilazad and then for 24 hours with Bothrops venom. Culture medium was as follows: Dulbecco's […] (DMEM, GIBCO-Invitrogen) with 10% heat-inactivated fetal bovine serum (FBS, GIBCO-Invitrogen), L-Glutamine (29.2 mg/mL), Penicillin (10,000 units/mL), and Streptomycin (10,000 μg/mL, GIBCO-Invitrogen) as antibiotics.
Histopathology: Tissues were processed with classical histological techniques, e.g., cutting by microtome (Minot) and stained with hematoxylin-eosin (H-E) and Periodic Acid Schiff (PAS) stains.

[1] = Tirilazad 1 μM (5 hours pre-incubation) + venom 75 μg/ml (24 hours), listed as tirilazad
[2] = Tirilazad 1 μM, no venom, listed as tirilazad
[3] = Tirilazad 3 μM (5 hours pre-incubation) + venom 75 μg/ml (24 hours)
[4] = Tirilazad 3 μM, no venom, listed as tirilazad
[5] = Tirilazad 10 μM (5 hours pre-incubation) + venom 75 μg/ml (24 hours), listed as tirilazad
[6] = Tirilazad 10 μM, no venom, listed as tirilazad
[7] = Tirilazad 20 μM (5 hours pre-incubation) + venom 75 μg/ml (24 hours)

## C[C@@H]1C[C@H]2[C@@H]3CCC4=CC(=O)C=C[C@]4(C)C3=CC[C@]2(C)[C@H]1C(=O)CN1CCN(c2cc(N3CCCC3)nc(N3CCCC3)n2)CC1 [Tirilazad, 16α-methyl-21-[4-[2,6-bis(1-pyrrolidinyl)-4-pyrimidinyl]-1-piperazinyl]pregna-1,4,9(11)-triene-3,20-dione]
Tirilazad 1 μM (5 hours pre-incubation) + venom 75 μg/ml (24 hours)
  Separation of Basement Membrane: No
[1]
  Cell Nuclei: intense presence of altered epidermal cells
  Pyknosis or Karyopyknosis: with nuclear pyknosis
  Separation of Basement Membrane: did not show separation of the basement membrane
Tirilazad 1 μM, no venom
  Pyknosis or Karyopyknosis: No
  Separation of Basement Membrane: No
[2]
  Cell Nuclei: epidermal cells were normal and showed preserved cytoplasmic and nuclear structure
  Separation of Basement Membrane: did not show separation of the basement membrane
[3]
  Cell Nuclei: intense presence of altered epidermal cells
  Pyknosis or Karyopyknosis: nuclear pyknosis predominating
  Separation of Basement Membrane: slight separation of the basement membrane
Tirilazad 3 μM, no venom
  Separation of Basement Membrane: No
[4]
  Cell Nuclei: slight epidermal cytoplasmic and nuclear alteration
  Separation of Basement Membrane: did not show separation of the basement membrane
Tirilazad 10 μM (5 hours pre-incubation) + venom 75 μg/ml (24 hours)
  Separation of Basement Membrane: No
[5]
  Cell Nuclei: Moderate presence of altered epidermal cells
  Pyknosis or Karyopyknosis: moderate nuclear pyknosis
  Separation of Basement Membrane: did not show separation of the basement membrane
Tirilazad 10 μM, no venom
  Pyknosis or Karyopyknosis: No
  Separation of Basement Membrane: No
[6]
  Cell Nuclei: epidermal cells were normal and showed preserved cytoplasmic and nuclear structure
  Separation of Basement Membrane: did not show separation of the basement membrane
[7]
  Cell Nuclei: intense presence of altered epidermal cells
  Pyknosis or Karyopyknosis: intense nuclear pyknosis
  Separation of Basement Membrane: intense separation of the basement membrane
Tirilazad 20 μM, no venom
  Cell Nuclei: epidermal cells were normal and showed preserved cytoplasmic and nuclear structure
  Pyknosis or Karyopyknosis: No
  Separation of Basement Membrane: intense separation of the basement membrane
Overall conclusion of the explant study
  effect on cellular structure in hoof tissue: provides a protective and/or therapeutic effect
